According to patent publication US11241501B2, “Anticancer prodrug for overcoming drug resistance” (Korea University Research and Business Foundation, priority 2018, dated 2022):

Legend:
Format in all cases: cell-based, human
MCF7/Dox cells = assay: Intracellular ATP, lactate levels and glucose uptake
Procedure: Fluorescence intensities were measured with SpectraMAX 13. Data represent means±SD. **p<0.01. […] Data represent means±SD. **[…]. […] Data represent the mean±SD (n=3 experimental replicates). *p<0.05, **p<0.01. […] MCF7/Dox cells were treated with C1 or C3 as indicated, and the cytosolic (C) and mitochondrial (M) fractions were subjected to immunoblot assay. COX-IV and tubulin were used as markers for the mitochondria and cytosol fractions, respectively.
Intracellular ATP levels were measured using an ATP Bioluminescence Assay Kit HSII (Roche Applied Science). Briefly, after the indicated treatment times for the test compound in question, cells were lysed with boiling lysis reagent and the supernatant was collected. […] of luciferin/Luciferase reagents. Luminescence was measured using Luminoskan Ascent (Thermo Scientific). Results were normalized to cell number. Intracellular L(+)-lactate level was measured using a lactate assay kit (BioVision). Cells were suspended with lactate assay buffer and incubated in the presence of the reaction mixture for 30 min. The lactate was quantified by measuring the absorbance at 570 nm using a Bio-Rad 680 microplate reader (Bio-Rad). For the glucose uptake assay, 2×10^5 cells were incubated in the presence of 20 mmol/L of 2-NBDG (2-[N-(7-nitrobenz-2-oxa-1,3-diazol-4-yl)amino]-2-deoxy-d-glucose; N13195; Invitrogen) for 2 h. The cells were re-suspended in cold growth medium and stained with propidium iodide. Samples were maintained on ice and analyzed via flow cytometry (Becton Dickinson).

WST cell viability assay = settings: human; HepG2 cells, WST assay; read-out: IC50 (cytotoxicity)
Procedure: (§1) HepG2 cells treated with each compound (5 μM, 24 hr) were co-stained with the mitochondrial marker MitoTracker (green). Boxed regions show co-localization of the test compounds and probe within the mitochondria. […] Experiments were carried out in triplicate and the data shown represent means±SD. **p<0.01. […] HepG2 cells were incubated with BNPP (100 μM) for 2 hr prior to C1 treatment. **p<0.01. […] Cleaved caspase-3 and PARP-1 levels were examined to assess apoptosis induction. C, cleaved.
(§2) Cells were seeded in 24 well plates at 2×10^5 cells per well and were allowed to adhere for at least 24 h, growth medium was replaced with medium containing C1 or its analogues at the indicated concentrations and times, and cell viability was assessed via the WST-1 assay (Roche Diagnostics, Laval, QC, Canada). For the colony formation assay, cells were seeded in 6-well plates. After 24 h, cells were maintained in the presence of each probe or vehicle dimethyl sulfoxide (DMSO) for 10 days. Colonies were fixed with methanol for 10 min and stained with 0.05% crystal violet in 20% ethanol.

HepG2 cells = assay: WST cell viability assay
Procedure: as §1, §2

[1] = system: p21^Waf1 and phosphorylated PDH levels; assay: Immunoblot assay of p21Waf1 and phosphorylated PDH
Procedure: as §1
Immunoblot analyses were performed using antibodies specific for phosphorylated serine 293 PDH-EI (ab92696), p21^Waf1 (sc-397), cleaved PARP (5625), cleaved caspase-3 (9664), COX-IV (4850), and Cytochrome c (4280). They were purchased from Abcam (Cambridge, UK), Santa Cruz Biotechnology (Texas, USA) or Cell Signaling Technology (Massachusetts, USA). Anti-tubulin antibodies were obtained from Sigma-Aldrich (St. Louis, USA). Briefly, cells were washed twice in ice-cold PBS and lysed in a radioimmunoprecipitation assay buffer containing 50 mM Tris/HCl (pH 7.5), 150 mM NaCl, 0.1% sodium dodecyl sulfate (SDS), 1% Triton X-100, 1% sodium deoxycholate, and protease inhibitor mixture. After sonification, the lysate was centrifuged, and the supernatant was recovered and loaded onto a 12% SDS-polyacrylamide gel for electrophoresis.

COc1cccc2c1C(=O)c1c(O)c3c(c(O)c1C2=O)C[C@@](O)(C(=O)CO)C[C@@H]3OC1C[C@H](NC(=O)OC(Cc2cn(CCCCCC[P+](c3ccccc3)(c3ccccc3)c3ccccc3)nn2)c2ccc(NC(=O)C(Cl)Cl)cc2)[C@H](O)[C@H](C)O1.[Br-] (stereo partly shown) [C1]
glucose uptake (MCF7/Dox cells): decreased glucose uptake | intracellular ATP levels (MCF7/Dox cells): lowered intracellular ATP levels | intracellular lactate levels (MCF7/Dox cells): dose-dependent reduction of intracellular lactate levels | IC50 (WST cell viability assay): 22.1 ± 0.325 µM | effect of BNPP pretreatment on C1-driven decrease in cell viability (HepG2 cells; HepG2, BNPP 100 μM 2 hr before treatment): strongly attenuated | cell death in cell-survival assays (HepG2 cells; compared with C3-C6): greater cell death in a dose-dependent manner | effect on p21^Waf1 and phosphorylated PDH levels [1]: up- and downregulation of p21^Waf1 and phosphorylated PDH levels
